Laboratory results as given in ChEMBL document CHEMBL5465560, “Selectivity Literature for EUbOPEN Chemogenomic Library” (2024).

Experiments:
[1] = molecular target: Ribosomal protein S6 kinase alpha-4 (Homo sapiens) (UniProt O75676); assay: Selectivity interaction (KinaseProfiler screening (Millipore)) EUB0000601a RPS6KA4; details: at 3 µM
[2] = molecular target: 5'-AMP-activated protein kinase catalytic subunit alpha-2 (Homo sapiens) (UniProt P54646); assay: Selectivity interaction (Ambit KINOMEscan and KiNATiv profiling in Jurkat cells) EUB0000090b PRKAA2; type: cell-based; details: at 1 µM
5'-AMP-activated protein kinase catalytic subunit alpha-2 (Homo sapiens), sequence (P54646 whole entry, looked up): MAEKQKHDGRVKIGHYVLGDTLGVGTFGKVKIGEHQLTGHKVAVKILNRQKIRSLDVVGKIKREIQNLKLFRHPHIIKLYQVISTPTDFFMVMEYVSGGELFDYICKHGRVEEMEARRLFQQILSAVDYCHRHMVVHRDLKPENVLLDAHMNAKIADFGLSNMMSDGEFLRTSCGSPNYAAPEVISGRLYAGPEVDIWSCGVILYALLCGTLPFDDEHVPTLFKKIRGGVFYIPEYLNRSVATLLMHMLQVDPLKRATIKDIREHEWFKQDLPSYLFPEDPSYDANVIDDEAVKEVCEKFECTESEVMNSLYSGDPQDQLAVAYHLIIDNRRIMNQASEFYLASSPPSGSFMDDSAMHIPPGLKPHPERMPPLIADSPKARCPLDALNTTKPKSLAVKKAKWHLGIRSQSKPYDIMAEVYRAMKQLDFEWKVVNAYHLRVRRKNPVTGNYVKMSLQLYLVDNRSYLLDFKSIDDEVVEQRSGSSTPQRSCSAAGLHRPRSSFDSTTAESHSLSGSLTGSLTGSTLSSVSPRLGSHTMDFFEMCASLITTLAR

[3] = molecular target: Dual specificity tyrosine-phosphorylation-regulated kinase 1A (Homo sapiens, UniProt Q13627); assay: Selectivity interaction (Ambit KINOMEscan and KiNATiv profiling in Jurkat cells) EUB0000090b DYRK1A; type: cell-based; details: at 1 µM
[4] = molecular target: T1, Serine/threonine-protein kinase ULK1 (Homo sapiens) (UniProt O75385); assay: Selectivity interaction (Kinase panel (DSF assay)) EUB0001559a ULK1
T1 sequence (whole entry): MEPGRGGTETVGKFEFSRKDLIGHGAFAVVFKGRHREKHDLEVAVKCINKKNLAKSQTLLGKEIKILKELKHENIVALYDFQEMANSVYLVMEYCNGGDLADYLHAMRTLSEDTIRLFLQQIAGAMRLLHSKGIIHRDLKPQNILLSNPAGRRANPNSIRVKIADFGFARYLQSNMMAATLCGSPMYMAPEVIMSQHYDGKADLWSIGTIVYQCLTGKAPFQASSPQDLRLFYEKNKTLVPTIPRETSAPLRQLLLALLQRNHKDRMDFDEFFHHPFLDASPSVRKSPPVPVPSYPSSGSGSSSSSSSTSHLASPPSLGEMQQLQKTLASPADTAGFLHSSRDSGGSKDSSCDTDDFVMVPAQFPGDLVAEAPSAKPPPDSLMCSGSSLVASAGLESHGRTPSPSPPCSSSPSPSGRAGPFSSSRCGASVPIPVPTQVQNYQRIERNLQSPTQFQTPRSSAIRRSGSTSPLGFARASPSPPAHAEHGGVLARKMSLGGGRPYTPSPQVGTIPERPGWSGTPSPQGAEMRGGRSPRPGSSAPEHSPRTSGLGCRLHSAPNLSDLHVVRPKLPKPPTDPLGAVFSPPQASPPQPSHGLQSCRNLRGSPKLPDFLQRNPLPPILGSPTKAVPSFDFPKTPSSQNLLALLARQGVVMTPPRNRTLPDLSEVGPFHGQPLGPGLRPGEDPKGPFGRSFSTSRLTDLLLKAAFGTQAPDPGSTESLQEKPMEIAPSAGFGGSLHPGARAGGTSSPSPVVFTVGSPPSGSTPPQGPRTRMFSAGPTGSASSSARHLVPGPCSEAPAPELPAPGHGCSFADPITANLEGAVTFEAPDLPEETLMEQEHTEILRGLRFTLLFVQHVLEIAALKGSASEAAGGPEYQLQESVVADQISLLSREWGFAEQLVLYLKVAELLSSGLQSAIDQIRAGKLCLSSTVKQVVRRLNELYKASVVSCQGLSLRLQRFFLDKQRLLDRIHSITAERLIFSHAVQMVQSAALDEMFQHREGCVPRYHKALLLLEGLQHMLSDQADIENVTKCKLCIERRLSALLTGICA

[5] = molecular target: T2, Serine/threonine-protein kinase Sgk3 (Homo sapiens) (UniProt Q96BR1); assay: Selectivity interaction (KinomeScan (DiscoverX)) EUB0000655a SGK3; details: at 10 µM
T2 sequence (whole entry): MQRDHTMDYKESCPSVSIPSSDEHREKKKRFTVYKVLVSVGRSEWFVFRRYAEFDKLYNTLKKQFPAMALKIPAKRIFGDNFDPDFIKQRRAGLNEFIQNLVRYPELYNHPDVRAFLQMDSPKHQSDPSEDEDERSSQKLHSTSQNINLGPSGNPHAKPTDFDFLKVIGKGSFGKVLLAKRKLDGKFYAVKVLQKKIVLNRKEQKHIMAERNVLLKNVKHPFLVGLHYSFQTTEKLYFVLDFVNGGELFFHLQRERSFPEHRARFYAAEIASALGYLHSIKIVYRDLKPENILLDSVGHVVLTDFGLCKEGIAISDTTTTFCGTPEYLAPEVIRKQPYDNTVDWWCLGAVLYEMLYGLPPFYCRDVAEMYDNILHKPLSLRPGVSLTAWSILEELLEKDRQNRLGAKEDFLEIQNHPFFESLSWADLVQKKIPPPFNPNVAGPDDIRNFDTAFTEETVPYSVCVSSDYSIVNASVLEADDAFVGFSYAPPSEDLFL

[6] = molecular target: Calcium/calmodulin-dependent protein kinase type II subunit gamma (Homo sapiens) (UniProt Q13555); details: at 10 µM
Calcium/calmodulin-dependent protein kinase type II subunit gamma (Homo sapiens), sequence (Q13555 whole entry): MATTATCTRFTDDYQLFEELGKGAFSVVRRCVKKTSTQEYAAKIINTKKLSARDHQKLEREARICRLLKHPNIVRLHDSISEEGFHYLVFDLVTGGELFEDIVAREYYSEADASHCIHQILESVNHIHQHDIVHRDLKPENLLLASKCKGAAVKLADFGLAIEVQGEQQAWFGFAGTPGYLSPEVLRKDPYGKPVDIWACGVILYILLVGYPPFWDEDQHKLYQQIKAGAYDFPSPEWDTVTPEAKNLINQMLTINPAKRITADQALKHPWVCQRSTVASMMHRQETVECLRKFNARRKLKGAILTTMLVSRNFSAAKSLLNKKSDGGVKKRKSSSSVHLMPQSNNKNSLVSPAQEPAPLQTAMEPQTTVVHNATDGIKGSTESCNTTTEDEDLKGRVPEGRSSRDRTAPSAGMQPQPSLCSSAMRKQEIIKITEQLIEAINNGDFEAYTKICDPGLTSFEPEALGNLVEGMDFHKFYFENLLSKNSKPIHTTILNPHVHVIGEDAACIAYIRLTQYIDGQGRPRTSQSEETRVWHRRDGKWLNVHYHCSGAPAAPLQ

[7] = molecular target: Serine/threonine-protein kinase Chk2 (Homo sapiens) (UniProt O96017); details: at 10 µM
Serine/threonine-protein kinase Chk2 (Homo sapiens), sequence (O96017 whole entry): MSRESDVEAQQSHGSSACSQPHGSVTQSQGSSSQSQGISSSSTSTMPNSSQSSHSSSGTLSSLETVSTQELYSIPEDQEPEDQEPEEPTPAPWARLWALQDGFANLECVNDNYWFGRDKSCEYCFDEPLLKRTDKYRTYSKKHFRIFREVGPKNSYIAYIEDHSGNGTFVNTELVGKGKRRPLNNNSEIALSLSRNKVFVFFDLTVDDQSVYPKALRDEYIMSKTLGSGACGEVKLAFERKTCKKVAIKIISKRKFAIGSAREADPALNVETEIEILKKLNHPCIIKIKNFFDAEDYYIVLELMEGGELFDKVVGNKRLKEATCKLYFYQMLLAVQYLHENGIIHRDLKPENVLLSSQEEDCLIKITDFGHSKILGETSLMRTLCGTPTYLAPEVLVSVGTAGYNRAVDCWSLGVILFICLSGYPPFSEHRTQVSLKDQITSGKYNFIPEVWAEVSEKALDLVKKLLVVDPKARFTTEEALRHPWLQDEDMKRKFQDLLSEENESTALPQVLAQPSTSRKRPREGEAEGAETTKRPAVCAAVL

[8] = molecular target: T3, Tyrosine-protein kinase receptor TYRO3 (Homo sapiens) (UniProt Q06418); assay: Selectivity interaction (KinomeScan (DiscoverX)) EUB0000229b TYRO3; details: at 10 µM
T3 sequence (whole entry): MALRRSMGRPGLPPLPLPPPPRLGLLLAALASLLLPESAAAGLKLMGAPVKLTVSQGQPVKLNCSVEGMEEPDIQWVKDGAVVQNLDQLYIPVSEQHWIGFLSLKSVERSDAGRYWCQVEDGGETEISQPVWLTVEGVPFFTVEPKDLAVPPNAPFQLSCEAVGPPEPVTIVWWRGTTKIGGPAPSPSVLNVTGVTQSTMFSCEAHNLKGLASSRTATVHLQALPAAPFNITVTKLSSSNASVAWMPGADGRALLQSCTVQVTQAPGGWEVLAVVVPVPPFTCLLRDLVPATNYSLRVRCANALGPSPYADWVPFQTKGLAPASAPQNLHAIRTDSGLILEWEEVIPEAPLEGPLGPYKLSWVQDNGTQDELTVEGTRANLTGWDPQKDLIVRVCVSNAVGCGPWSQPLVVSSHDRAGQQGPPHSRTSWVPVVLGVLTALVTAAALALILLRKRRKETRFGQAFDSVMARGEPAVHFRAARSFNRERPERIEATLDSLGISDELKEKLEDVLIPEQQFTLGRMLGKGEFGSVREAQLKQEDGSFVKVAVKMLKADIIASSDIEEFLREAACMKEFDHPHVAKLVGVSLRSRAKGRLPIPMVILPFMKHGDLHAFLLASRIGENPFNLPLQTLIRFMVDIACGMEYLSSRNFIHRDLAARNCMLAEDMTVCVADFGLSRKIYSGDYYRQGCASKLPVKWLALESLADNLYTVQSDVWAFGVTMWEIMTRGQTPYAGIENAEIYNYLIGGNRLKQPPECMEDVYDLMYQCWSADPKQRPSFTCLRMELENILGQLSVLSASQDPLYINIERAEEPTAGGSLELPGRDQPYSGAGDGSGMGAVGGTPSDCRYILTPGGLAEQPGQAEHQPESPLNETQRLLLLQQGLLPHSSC

[9] = molecular target: Phosphatidylinositol 4-phosphate 5-kinase type-1 gamma (Homo sapiens) (UniProt O60331); assay: Selectivity interaction (ProQinase) EUB0000171b PIP5K1C; details: at 1 µM
Phosphatidylinositol 4-phosphate 5-kinase type-1 gamma (Homo sapiens), sequence (O60331 whole entry): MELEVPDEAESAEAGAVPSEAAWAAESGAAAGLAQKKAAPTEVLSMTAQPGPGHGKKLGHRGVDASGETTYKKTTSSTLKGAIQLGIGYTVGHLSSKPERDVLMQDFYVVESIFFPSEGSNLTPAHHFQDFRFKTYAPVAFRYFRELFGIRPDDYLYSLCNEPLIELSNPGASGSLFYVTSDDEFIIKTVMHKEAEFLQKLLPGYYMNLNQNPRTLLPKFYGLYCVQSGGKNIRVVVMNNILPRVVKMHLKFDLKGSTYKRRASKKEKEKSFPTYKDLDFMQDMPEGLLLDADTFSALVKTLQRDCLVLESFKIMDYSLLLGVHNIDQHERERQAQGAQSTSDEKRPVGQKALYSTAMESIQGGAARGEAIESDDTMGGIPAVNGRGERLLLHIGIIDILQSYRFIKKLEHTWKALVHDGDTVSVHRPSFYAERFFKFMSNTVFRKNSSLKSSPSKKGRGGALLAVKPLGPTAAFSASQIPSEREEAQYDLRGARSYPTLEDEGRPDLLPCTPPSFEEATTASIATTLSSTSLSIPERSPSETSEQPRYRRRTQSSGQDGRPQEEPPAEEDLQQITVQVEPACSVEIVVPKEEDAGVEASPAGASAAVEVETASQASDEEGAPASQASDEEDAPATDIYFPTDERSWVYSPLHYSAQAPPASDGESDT

[10] = molecular target: Vascular endothelial growth factor receptor 2 (Homo sapiens, UniProt P35968); assay: Selectivity interaction (NovaScreen assay) EUB0001542aTs KDR
Vascular endothelial growth factor receptor 2, sequence (P35968 whole entry): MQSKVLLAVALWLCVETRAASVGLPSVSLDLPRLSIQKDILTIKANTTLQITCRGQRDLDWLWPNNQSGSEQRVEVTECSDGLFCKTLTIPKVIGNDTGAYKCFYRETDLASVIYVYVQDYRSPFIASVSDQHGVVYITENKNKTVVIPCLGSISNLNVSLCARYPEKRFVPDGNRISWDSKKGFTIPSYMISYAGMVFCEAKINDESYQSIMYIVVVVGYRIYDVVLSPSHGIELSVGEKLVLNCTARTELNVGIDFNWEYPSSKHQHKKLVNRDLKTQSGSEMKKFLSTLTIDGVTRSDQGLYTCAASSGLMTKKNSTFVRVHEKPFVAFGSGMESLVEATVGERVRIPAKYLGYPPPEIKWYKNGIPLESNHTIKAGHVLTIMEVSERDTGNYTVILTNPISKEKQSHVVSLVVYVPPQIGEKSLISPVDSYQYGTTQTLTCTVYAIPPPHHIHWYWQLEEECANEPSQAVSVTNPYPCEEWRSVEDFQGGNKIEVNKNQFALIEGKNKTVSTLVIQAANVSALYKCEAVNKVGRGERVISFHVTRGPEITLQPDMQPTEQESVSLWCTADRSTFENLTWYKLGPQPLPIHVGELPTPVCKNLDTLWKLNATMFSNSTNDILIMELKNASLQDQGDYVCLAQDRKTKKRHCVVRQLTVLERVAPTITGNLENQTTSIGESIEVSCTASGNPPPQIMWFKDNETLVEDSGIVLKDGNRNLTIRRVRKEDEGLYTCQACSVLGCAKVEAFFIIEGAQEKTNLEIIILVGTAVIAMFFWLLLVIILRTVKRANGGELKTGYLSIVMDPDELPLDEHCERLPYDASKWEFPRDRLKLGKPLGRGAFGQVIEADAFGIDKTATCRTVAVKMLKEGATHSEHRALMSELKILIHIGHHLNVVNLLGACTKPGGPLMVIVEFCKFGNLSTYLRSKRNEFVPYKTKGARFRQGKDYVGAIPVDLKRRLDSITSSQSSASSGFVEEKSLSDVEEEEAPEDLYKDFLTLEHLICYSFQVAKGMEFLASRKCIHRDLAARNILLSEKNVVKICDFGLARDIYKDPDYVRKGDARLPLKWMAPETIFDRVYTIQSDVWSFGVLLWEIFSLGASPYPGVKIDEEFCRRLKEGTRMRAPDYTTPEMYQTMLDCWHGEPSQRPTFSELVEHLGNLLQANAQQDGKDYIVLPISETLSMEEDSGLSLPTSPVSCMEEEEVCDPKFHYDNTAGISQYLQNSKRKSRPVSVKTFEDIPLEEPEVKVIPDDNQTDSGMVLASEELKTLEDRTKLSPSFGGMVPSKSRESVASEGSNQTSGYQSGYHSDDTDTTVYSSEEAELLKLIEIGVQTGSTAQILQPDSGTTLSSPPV

Ribosomal protein S6 kinase alpha-4 (Homo sapiens), sequence (O75676 whole entry, looked up): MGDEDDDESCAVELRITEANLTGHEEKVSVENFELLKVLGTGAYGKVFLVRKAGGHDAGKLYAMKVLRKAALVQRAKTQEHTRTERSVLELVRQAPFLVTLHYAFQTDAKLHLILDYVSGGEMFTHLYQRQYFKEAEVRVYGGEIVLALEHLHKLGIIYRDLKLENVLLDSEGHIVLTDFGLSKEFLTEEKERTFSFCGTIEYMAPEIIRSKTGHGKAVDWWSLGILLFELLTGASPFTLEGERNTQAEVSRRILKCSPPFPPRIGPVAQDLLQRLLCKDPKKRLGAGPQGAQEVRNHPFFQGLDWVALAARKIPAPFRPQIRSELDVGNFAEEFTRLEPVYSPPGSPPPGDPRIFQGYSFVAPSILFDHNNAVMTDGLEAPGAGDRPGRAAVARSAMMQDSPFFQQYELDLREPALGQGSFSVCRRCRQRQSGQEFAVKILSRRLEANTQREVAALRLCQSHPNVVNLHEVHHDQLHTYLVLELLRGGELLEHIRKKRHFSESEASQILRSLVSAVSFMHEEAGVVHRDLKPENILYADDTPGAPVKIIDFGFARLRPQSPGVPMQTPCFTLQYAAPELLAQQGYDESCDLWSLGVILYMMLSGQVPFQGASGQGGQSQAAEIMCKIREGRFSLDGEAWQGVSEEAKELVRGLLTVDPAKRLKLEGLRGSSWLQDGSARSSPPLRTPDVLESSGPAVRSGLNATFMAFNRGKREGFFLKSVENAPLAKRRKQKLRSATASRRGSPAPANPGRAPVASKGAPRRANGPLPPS

Which % of inhibition [1] does the source give for `CCc1cc(Nc2nccc(-c3c(-c4ccc(OC)c(C(=O)Nc5c(F)cccc5F)c4)nc4ccccn34)n2)c(OC)cc1N1CCC(N2CCN(S(C)(=O)=O)CC2)CC1` here?
The % of inhibition was 55%.

What does the source list for `CN(C)C/C=C/C(=O)Nc1ccc(C(=O)N2CCCC(Nc3ncc(Cl)c(-c4c[nH]c5ccccc45)n3)C2)cc1` (stereo not given)?
% of control [2]: 98%; % of control [3]: 30%

Which dTM [4] does the source give for `CN(C(=O)c1cnn2cccnc12)c1cc2c(cc1N1CCOCC1)C(=O)N(C[C@@H](F)C(C)(C)O)C2` here?
The dTM was -1 K.

Which % of control [5] does the source give for `CN(C)CCOc1ccc(-c2nc(-c3ccncc3)c(-c3ccc4c(c3)CC/C4=N\O)[nH]2)cc1` here?
The % of control was 88%.

Which % of control [6] does the source give for `Cc1cc([C@@H](C)Nc2ccccc2C(=O)O)c2nc(N3CCOCC3)cc(=O)n2c1` [AZD-6482] here?
Its % of control is 98%.

And the % of control [7]?
The % of control was 100%.

How did the % binding [8] turn out when `COc1cc(N(C)c2ccnc3ccc(C(F)(F)F)cc23)cc(OC)c1OC` was run?
Its % binding is 80%.

How did the % of control [9] turn out when `C=CC(=O)Nc1cccc(C(=O)Nc2ccc(Nc3cc(-c4[nH]c(SC)nc4C)ccn3)cc2)c1` was run?
The % of control was 107%.

`Cn1cc(Nc2nccc(N3CC4CCC(C3)N4C(=O)[C@@H]3CC3(F)F)n2)cn1` was tested. Which IC50 [10] did it give?
The IC50 was greater than 30 µM.
